Source: PubChem BioAssay AID330 (DTP/NCI, 2004)
Values joined by “and” are separate entries in the source; they are usually repeats but may differ in a detail not shown here. Equal values may be shown once. Toxic doses and inconclusive results are not listed. How the source made its calls: active means survival T/C of 150% or more; inactive means T/C below 125% in these data.

Test system: P388 leukemia ip, CD2F1 mice, survival T/C
Assay: NCI In Vivo Anticancer Drug Screen. Data for tumor model P388 Leukemia (intraperitoneal) in CD2F1 (CDF1) mice
Conditions: endpoint: median survival time, higher = longer survival
Outline: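 Mice carrying the transplanted tumor received test compound or vehicle. Survival was recorded in each group, and the value is the treated-group measurement divided by that of the vehicle-treated control group.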

[1] = dose: 50.0 mg/kg/injection, schedule: Q01DX009 (ip), vehicle: saline with Tween-80
[2] = dose: 100.0 mg/kg/injection, schedule: Q01DX009 (ip), vehicle: saline with Tween-80
[3] = dose: 50.0 mg/kg/injection, schedule: Q01DX005 (ip), vehicle: saline with Tween-80
[4] = dose: 100.0 mg/kg/injection, schedule: Q01DX005 (ip), vehicle: saline with Tween-80
[5] = dose: 7.5 mg/kg/injection, schedule: Q01DX005 (ip), vehicle: saline with Tween-80
[6] = dose: 15.0 mg/kg/injection, schedule: Q01DX005 (ip), vehicle: saline with Tween-80
[7] = dose: 30.0 mg/kg/injection, schedule: Q01DX005 (ip), vehicle: saline with Tween-80
[8] = dose: 200.0 mg/kg/injection, schedule: Q01DX009 (ip), vehicle: saline with Tween-80
[9] = dose: 400.0 mg/kg/injection, schedule: Q01DX009 (ip), vehicle: saline with Tween-80

Measured: T/C

NC(=O)CCNC(=O)CCCNC(=O)CCNC(=O)OCc1ccccc1
inactive: dose: 12.5 mg/kg/injection, schedule: Q01DX009 (ip), vehicle: distilled water + Tween-80 96 % of control | dose: 25.0 mg/kg/injection, schedule: Q01DX009 (ip), vehicle: distilled water + Tween-80 110 % of control | dose: 50.0 mg/kg/injection, schedule: Q01DX009 (ip), vehicle: distilled water + Tween-80 97 % of control | dose: 100.0 mg/kg/injection, schedule: Q01DX009 (ip), vehicle: distilled water + Tween-80 105 % of control | dose: 200.0 mg/kg/injection, schedule: Q01DX009 (ip), vehicle: distilled water + Tween-80 96 % of control

CC[As](CC)SC1CC(OC(=O)c2ccccc2)C(OC(=O)c2ccccc2)C(COC(=O)c2ccccc2)O1 (stereo unspecified)
inactive: [1] 100 % of control | [2] 105 % of control

CC(C)=CC[P+](CCC[P+](CC=C(C)C)(c1ccccc1)c1ccccc1)(c1ccccc1)c1ccccc1
inactive: dose: 3.12 mg/kg/injection, schedule: Q01DX005 (ip), vehicle: saline with Tween-80 106 % of control | dose: 6.25 mg/kg/injection, schedule: Q01DX005 (ip), vehicle: saline with Tween-80 104 % of control | dose: 12.5 mg/kg/injection, schedule: Q01DX005 (ip), vehicle: saline with Tween-80 98 % of control

CSc1nc(Cl)c(Br)c(N2CC2)n1
inactive: [3] 100 % of control | [4] 107 % of control

O=S(=O)(CCCCl)SCCCCl
inactive: [5] 104 % of control | [6] 105 % of control | [7] 103 % of control and 105 % of control | dose: 60.0 mg/kg/injection, schedule: Q01DX005 (ip), vehicle: saline with Tween-80 96 % of control

Nc1cc2nc3ccccc3sc-2cc1=O
inactive: [1] 112 % of control | [2] 111 % of control | [8] 113 % of control | [9] 89 % of control

O=C(O)CCSSCCCCCS(=O)O
inactive: dose: 50.0 mg/kg/injection, schedule: Q01DX005 (ip), vehicle: saline 100 % of control | dose: 100.0 mg/kg/injection, schedule: Q01DX005 (ip), vehicle: saline 104 % of control | dose: 200.0 mg/kg/injection, schedule: Q01DX005 (ip), vehicle: saline 104 % of control

NC1=CC(=O)c2nc(-c3ccccc3N)ccc2C1=O
inactive: dose: 100.0 mg/kg/injection, schedule: Q04DX003 (ip), vehicle: Klucel (hydroxypropylcellulose) (HPC) 109 % of control | dose: 200.0 mg/kg/injection, schedule: Q04DX003 (ip), vehicle: Klucel (hydroxypropylcellulose) (HPC) 105 % of control

COc1cc(/C=N/N2CC(=O)N(c3cccc(Cl)c3)CC2=O)cc(OC)c1
inactive: [5] 95 % of control | [6] 96 % of control | [7] 94 % of control

CN(/N=N/N(C)c1ccccc1)c1ccccc1
inactive: dose: 25.0 mg/kg/injection, schedule: Q01DX009 (ip), vehicle: saline with Tween-80 103 % of control and 93 % of control | dose: 44.0 mg/kg/injection, schedule: Q01DX009 (ip), vehicle: saline with Tween-80 118 % of control | [1] 101 % of control and 107 % of control | dose: 66.0 mg/kg/injection, schedule: Q01DX009 (ip), vehicle: saline with Tween-80 104 % of control | [2] 98 % of control and 110 % of control and 90 % of control | dose: 150.0 mg/kg/injection, schedule: Q01DX009 (ip), vehicle: saline with Tween-80 100 % of control | [8] 103 % of control and 94 % of control | [9] 100 % of control and 86 % of control

CC(C)=N/N=C(/N)[Se]
inactive: dose: 3.12 mg/kg/injection, schedule: Q01DX009 (ip), vehicle: saline with Tween-80 95 % of control | dose: 6.25 mg/kg/injection, schedule: Q01DX009 (ip), vehicle: saline with Tween-80 103 % of control | dose: 12.5 mg/kg/injection, schedule: Q01DX009 (ip), vehicle: saline with Tween-80 97 % of control

CC1=NN(c2ccccc2)C(=O)C1N=Nc1cc(Cl)cc(S(=O)(=O)O)c1O (stereo unspecified)
inactive: dose: 50.0 mg/kg/injection, schedule: Q01DX009 (ip), vehicle: saline 96 % of control | dose: 100.0 mg/kg/injection, schedule: Q01DX009 (ip), vehicle: saline 97 % of control

CC(=O)c1ccc2c(=O)n3c4ccccc4nc3c3cccc1c23
inactive: [1] 118 % of control | [2] 104 % of control

N#Cc1c(NC(=O)C(Cl)(Cl)Cl)sc2c1CCCC2
inactive: [3] 105 % of control | [4] 110 % of control | dose: 200.0 mg/kg/injection, schedule: Q01DX005 (ip), vehicle: saline with Tween-80 117 % of control
